“Also recorded” adds a separate entry of the source. Like-named read-outs stand apart in the source and are kept apart here. Each block holds one compound with its values, some of them ahead of it.
Key:
[1] = Stability in ^131I-labeling, Tl(TFA)3/TFA iodination (Example 6-A); format: physicochemical; settings: for chemical stability during the radioiodination: Tl(TFA)3/TFA iodination; for Identified impurity (%) / RCP (%): after ^131I-labeling with 2.5 mCi Na^131I
Excerpt: Purpose: ^131I-labeling yield and stability were compared side-by-side for (Compound C, Compound D and Compound A) together with Compound B (with or without addition of Dioxolane).
Results: The T1(TFA)3/TFA iodination method could be used for ^131I-Compound C, ^131I-Compound D and Compound A. Different from Compound B, there was almost no degraded impurities occurred during the labeling (^131I-Compound C, ^131I-Compound D or Compound A) at a radioactivity dose level of 2.5 mCi.

SK-MEL-3 tumor = assay: Effect on SK-MEL-3 tumor growth in mice; format: in vivo; settings: 68 mCi/m^2
Excerpt: FIG. 6 illustrates the effect of ^131I-Cmpd A (68 mCi/m^2) on SK-MEL-3 tumor growth at various dose levels.
FIG. 7 illustrates the effect of ^131I-Cmpd A (68 mCi/m^2) on SK-MEL-3 tumor growth in mice at various dose levels. […] (Please note that animals were euthanized if tumor volume was>1500 mm^3).
Effects of ^131I-Cmpd A (68 mCi/m^2) on SK-MEL-3 tumor growth were investigated in mice. Saline and dacarbazine were used as references for the study. In this experiment, different batches of mice were administered a dose of 68 mCi/m^2 of ^131I-Cmpd A once a day, twice a day, and thrice a day. The treatment lasted for 125 days. The mice were euthanized if tumor volume was greater than 1500 mm^3. The treated mice were closely monitored and sacrificed if any signs of approaching death were shown. Tumor change (length and width of tumor) was monitored every few days.

B16F10 tumor = assay: Organ distribution and tumor accumulation in B16F10 tumor bearing mice; format: in vivo; settings: for biodistribution (distribution properties): B16F10 tumor bearing mice, 1 hour and 24 hour after intravenous administration, FIG. 4
Method: FIG. 3 illustrates the biodistribution of ^131I-Cmpd B and ^131I-Cmpd BD in B16F10 bearing mice.
FIG. 4 illustrates the biodistribution of ^131I-Cmpd A, ^131I-Cmpd B, ^131I-Cmpd C, and ^131I-Cmpd D in B16F10 tumor bearing mice.
The organ distribution and tumor accumulation experiments were performed in B16F10 tumor bearing mice. At times indicated (1 hour and 24 hour) after intravenous administration of the substances, the animals were sacrificed, organs and tumors were removed, optionally dabbed dry, weighed, and measured for radioactive content in a calibrator with the corresponding isotope standard. The results are depicted as % of the injected dose/gm of tissue. FIG. 4 illustrates the biodistribution of ^131I-Cmpd A, ^131I-Cmpd B, ^131I-Cmpd C, and ^131I-Cmpd D in B16F10 tumor bearing mice.

[2] = Tumor uptake and retention of ^123I-Compound B in B16 melanoma bearing mice; format: in vivo; settings: mouse
Excerpt: Tumor uptake and retention of ^123I-Compound B in B16 melanoma bearing mice (% ID/g) was as shown in Table B. Those studies were done using the method disclosed in Eisenhut et al., J. Med. Chem. 2000, 43(21), 3913-22.

melanin = melanin targeting / binding capacity in vitro and in vivo
[3] = Stability post labelling in radiolysis protecting buffer, 3 days storage at RT (Example 6-B); format: physicochemical; settings: for Free ^131I (%) / Identified impurity (%) / RCP (%): RT, radiolysis protecting buffer, ~11 mCi/mL
[4] = Solubility at 3 mg/mL, dissolved in acetic acid, then PEG400/ethanol, then matrix, visual inspection (Example 7-B); format: physicochemical; settings: 3% acetic acid, 30% PEG400, 2% ethanol, 6% ascorbic acid, 3% sodium gentisate, pH=3.6, RT
Method: The compounds were dissolved in acetic acid first, and then diluted with PEG400/ethanol; the solution was finally diluted in matrix into a final concentration of 3 mg/mL. The components of the matrix included 3% sodium gentisate (w/v) and 6% ascorbic acid (w/v) (pH=3.6). The prepared sample solution was kept at RT and examined by visual inspection.

[5] = Solubility over one week storage at RT, visual inspection and HPLC (Example 7-C); format: physicochemical; settings: for HPLC measured conc. at 7 days: 3 mg/mL prepared, with 3% acetic acid; for aqueous solubility: comparison among the tested compounds
Method: Compound C and Compound D were dissolved in acetic acid first, and then with PEG400/ethanol; the solution was finally diluted in matrix into a final concentration of 3 mg/mL. The matrix included 3% sodium gentisate (w/v) and 6% ascorbic acid (w/v) (pH=3.6). The prepared sample solution was kept at RT and examined by visual inspection. The concentration of the tested compounds in the solution or in the supernatant was analyzed by HPLC.

B16 melanoma = B16 melanoma bearing C57BL/J1 mouse, cited from earlier work
[6] = protected with 10 μL of Dioxolane

SMILES: CCN(CC)CCNC(=O)c1cc([131I])c(NC(=O)c2ccc(F)cc2)cc1OC [Compound A, N-(2-(diethylamino)ethyl)-4-(4-fluoro-benzoylamino)-5-iodo-2-methoxybenzamide]
- chemical stability during the radioiodination [1]: stable
- tumor growth (tumor change) (SK-MEL-3 tumor; SK-MEL-3 tumor in mice, FIG. 6): reducing the tumor growth
- survival of the mice (SK-MEL-3 tumor; SK-MEL-3 tumor in mice, FIG. 7): increasing survival of the mice
- response to treatment (SK-MEL-3 tumor; human melanoma mouse xenograft model): complete response (CR) has been observed
- biodistribution (distribution properties) (B16F10 tumor): desirable distribution properties
- tumor uptake and retention (B16F10 tumor; tumor bearing animal models): significant high tumor uptake and prolonged retention

SMILES: CCN(CC)CCNC(=O)c1ccc([123I])cc1 [^123I-BZA]
- tumor wash-out (% ID/g) (B16 melanoma; 1 h): 6.8 % ID/g
- tumor wash-out (% ID/g) (B16 melanoma; 24 h): 0.8 % ID/g
- tumor wash-out (% ID/g) (B16 melanoma; 72 h): 0.3 % ID/g

Now from value to compound, other results behind:

- tissue uptake at 1 h ([2]; 1 h): 14.8 %ID/g
- tissue uptake at 5 h ([2]; 5 h): 22.7 %ID/g
- tissue uptake at 48 h ([2]; 48 h): 16.6 %ID/g
- chemical stability during the radioiodination [1]: poor chemical stability
- Identified impurity (%) ([1]; Tl(TFA)3/TFA): 5.5%
- RCP (%) ([1]; Tl(TFA)3/TFA): 90.3%
- Identified impurity (%) [1, 6]: 2.3%
- RCP (%) [1, 6]: 94.0%
- Free ^131I (%) ([3]; 0 day): 0.1%
- Identified impurity (%) ([3]; 0 day): 10.3%
- RCP (%) ([3]; 0 day): 89.5%
- Free ^131I (%) ([3]; 3 day): 2.4%
- Identified impurity (%) ([3]; 3 day): 8.8%
- RCP (%) ([3]; 3 day): 88.6%
- stability during the 3 days storage at RT post labeling ([3]; diluted in radiolysis protecting solution, Compound B vs Compound A): no significant difference in stability
- biodistribution (distribution properties) (B16F10 tumor): desirable distribution properties
SMILES: CCN(CC)CCNC(=O)c1cc(I)c(NC(=O)c2ccc3c(c2)OCO3)cc1OC [Compound B, benzo[1,3]dioxole-5-carboxylic acid [4-(2-diethylamino-ethylcarbamoyl)-2-iodo-5-methoxyphenyl]amide]
- melanin targeting capacity (melanin): found to have melanin targeting capacity both in vitro and in vivo

- chemical stability during the radioiodination [1]: stable
- Identified impurity (%) ([1]; Tl(TFA)3/TFA): 0%
- RCP (%) ([1]; Tl(TFA)3/TFA): 97.1%
- Solution inspection [4]: Clear solution
- HPLC measured conc. at 7 days ([5]; RT, concentration in the supernatant): 0.23 mg/mL
- Solution inspection at 7 days ([5]; 3 mg/mL, 3% acetic acid, 30% PEG400, 2% ethanol, 6% ascorbic acid, 3% sodium gentisate, RT): Precipitation**
- biodistribution (distribution properties) (B16F10 tumor): desirable distribution properties
SMILES: CCN(CC)CCNC(=O)c1cc(I)c(NC(=O)c2ccc(Cl)cc2)cc1OC [Compound C, 4-(4-chlorobenzoylamino)-N-(2-(diethylamino)ethyl)-5-iodo-2-methoxybenzamide]
- melanin targeting capacity (melanin): found to have melanin targeting capacity both in vitro and in vivo
- aqueous solubility [5]: poor aqueous solubility; also recorded: Compound A>Compound D>>Compound C

- chemical stability during the radioiodination [1]: stable
- Identified impurity (%) ([1]; Tl(TFA)3/TFA): 0%
- RCP (%) ([1]; Tl(TFA)3/TFA): ~100%
- Solution inspection [4]: Clear solution
- HPLC measured conc. at 7 days ([5]; RT): 2.89 mg/mL
- biodistribution (distribution properties) (B16F10 tumor): desirable distribution properties
SMILES: CCN(CC)CCNC(=O)c1cc(I)c(NC(=O)c2ccc(OC)cc2)cc1OC [Compound D, N-(2-diethylamino-ethyl)-5-iodo-2-methoxy-4-(4-methyoxybenzoylamino)benzamide]
- melanin targeting capacity (melanin): found to have melanin targeting capacity both in vitro and in vivo
- aqueous solubility [5]: poor aqueous solubility; also recorded: Compound A>Compound D>>Compound C
